Measured values taken from ChEMBL document CHEMBL1143711, “Design, synthesis, and evaluation of potent, structurally novel peroxisome proliferator-activated receptor (PPAR) delta-selective agonists” (Bioorg Med Chem, 2007).

What was measured:
[1] = target: T1, Peroxisome proliferator-activated receptor delta (Homo sapiens, UniProt Q03181)
T1 sequence (Q03181 whole entry): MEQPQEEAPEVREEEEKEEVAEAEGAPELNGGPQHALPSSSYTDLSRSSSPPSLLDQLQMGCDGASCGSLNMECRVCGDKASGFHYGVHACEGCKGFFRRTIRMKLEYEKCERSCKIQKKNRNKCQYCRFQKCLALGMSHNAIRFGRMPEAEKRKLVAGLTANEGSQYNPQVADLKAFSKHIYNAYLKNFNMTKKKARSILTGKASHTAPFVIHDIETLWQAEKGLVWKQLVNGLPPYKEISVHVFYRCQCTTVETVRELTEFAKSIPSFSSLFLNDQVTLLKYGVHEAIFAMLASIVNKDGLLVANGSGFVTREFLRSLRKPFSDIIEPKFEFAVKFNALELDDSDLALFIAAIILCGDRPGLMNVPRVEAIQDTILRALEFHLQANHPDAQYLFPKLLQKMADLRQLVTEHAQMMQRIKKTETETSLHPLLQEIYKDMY

[2] = target: T2, Peroxisome proliferator-activated receptor gamma (Homo sapiens, UniProt P37231); format: cell-based, HEK293
T2 sequence (P37231 whole entry): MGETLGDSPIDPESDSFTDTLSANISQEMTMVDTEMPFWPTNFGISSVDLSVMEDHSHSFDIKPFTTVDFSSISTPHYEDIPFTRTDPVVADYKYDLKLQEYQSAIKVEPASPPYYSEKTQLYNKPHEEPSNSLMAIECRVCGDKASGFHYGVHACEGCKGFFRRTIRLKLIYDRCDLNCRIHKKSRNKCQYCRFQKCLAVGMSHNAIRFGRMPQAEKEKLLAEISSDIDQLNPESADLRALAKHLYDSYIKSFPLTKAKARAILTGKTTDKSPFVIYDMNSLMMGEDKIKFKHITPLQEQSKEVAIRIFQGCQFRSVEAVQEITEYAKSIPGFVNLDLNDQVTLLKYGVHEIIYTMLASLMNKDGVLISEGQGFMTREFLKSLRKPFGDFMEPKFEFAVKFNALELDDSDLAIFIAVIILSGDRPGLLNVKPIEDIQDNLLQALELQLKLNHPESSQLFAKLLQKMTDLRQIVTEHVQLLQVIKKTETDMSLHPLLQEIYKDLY

[3] = target: T3, Peroxisome proliferator-activated receptor alpha (Homo sapiens, UniProt Q07869); experiment: Effect on PPARalpha transactivation activity in HEK293 cells; format: cell-based
T3 sequence (Q07869 whole entry): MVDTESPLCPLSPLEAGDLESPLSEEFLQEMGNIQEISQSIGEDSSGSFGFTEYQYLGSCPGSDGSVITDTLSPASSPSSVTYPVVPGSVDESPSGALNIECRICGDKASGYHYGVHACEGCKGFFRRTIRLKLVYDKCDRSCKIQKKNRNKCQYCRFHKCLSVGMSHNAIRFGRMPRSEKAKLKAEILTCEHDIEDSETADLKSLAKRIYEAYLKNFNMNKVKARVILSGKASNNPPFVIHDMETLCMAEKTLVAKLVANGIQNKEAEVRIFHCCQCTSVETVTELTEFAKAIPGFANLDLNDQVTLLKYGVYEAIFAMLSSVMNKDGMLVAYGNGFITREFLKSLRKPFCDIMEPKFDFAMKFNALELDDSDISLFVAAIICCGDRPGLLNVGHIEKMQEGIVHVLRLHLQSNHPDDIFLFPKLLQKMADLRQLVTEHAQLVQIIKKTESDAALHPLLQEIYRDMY

EC50 [2] [µM] | EC50 [3] [µM] | SMILES | EC50 [1] [µM]
 | > 10 | CCC(Cc1ccc(OCc2ccccc2)c(CNC(=O)c2ccc(C(F)(F)F)cc2)c1)C(=O)O (stereo not given) | 
> 10 |  | COc1ccc(CC(C)C(=O)O)cc1CNC(=O)c1ccc(C(F)(F)F)cc1 (stereo not given) | 
> 10 |  | COc1ccc(CCC(=O)O)cc1CNC(=O)c1ccc(C(F)(F)F)cc1 | 

SMILES | EC50 [2] [µM] | EC50 [3] [µM] | EC50 [1] [µM]
CCCCOc1ccc(C[C@@H](CC)C(=O)O)cc1CNC(=O)c1ccc(C(F)(F)F)cc1F | 7 |  | 0.0083
